Test results published in paper PMC4355590, “A Kinetic Study of the Main Guaco Metabolites Using Syrup Formulation and the Identification of an Alternative Route of Coumarin Metabolism in Humans” (PLoS ONE, 2015).
Values joined by “and” are separate entries in the source; they are usually repeats but may differ in a detail not shown here. Identical values can stand only once. Like-named read-outs stand apart in the source and are kept apart here. Marks after values point to notes of the source that are not given here.

Columns and labels:
[1] = Pharmacokinetic study: volunteers orally received 60 mL of guaco syrup spiked with 1500 mg of COU, plasma by HPLC-MS/MS; format: in vivo, human
Description: The weight ranged from 63 to 88 kg and the height from 1.65 to 1.80 m. The volunteers were submitted to the medical consultations and clinical analyses before their participation in the study. Only healthy volunteers (normal values of blood pressure and renal, hepatic, biochemical and hematological parameters) were eligible to participate in the study. […] The volunteers were informed about all the procedures and possible risks related to the study. All the volunteers provided written informed consent to participate in the study. […] All the volunteers fasted for 8 h prior to the administration of guaco syrup and blood collection. […] The anticoagulant used was tetrasodium edetate. […] The pharmacokinetic analysis was performed using a non-compartmental model, considering an extravascular administration route and using WinNonlin Professional software, version 5.3. The relationships among the areas under the curves (r areas = AUC0-t/AUC0-inf), were used to confirm the suitability of the experimental design. […] All the frozen (-40°C) human plasma samples from the volunteers were thawed at room temperature, and a 200 μL aliquot was transferred into 2 mL plastic centrifuge tubes. The analytes were extracted as follows. The 200 μL aliquots of thawed samples were spiked with 50 μL of acetonitrile/water (70:30 v/v) and 50 μL of the working IS solution to obtain a final concentration of 500 ng/mL of 6-methylcoumarin. The spiked samples were vortexed for 2 min, and a 1.5 mL aliquot of TBME was added to the tube. The samples were vortexed for 2 min and then submitted to centrifugation for 10 min (14000 rpm, -5°C). A 1.2 mL aliquot of each sample supernatant was transferred to a new plastic centrifuge tube, and TBME was evaporated at 40°C in a sample concentrator (CentriVap Labconco, Kansas City, EUA). The remaining samples were resuspended in 200 μL of acetonitrile/water (70:30 v/v) using a vortex mixer for 3 min. The 200 μL aliquots of the thawed samples were spiked with 50 μL of acetonitrile/water (70:30 v/v) and 50 μL of the working IS solution to obtain a final concentration of 500 ng/mL of prednisone (IS) and 1000 ng/mL of isoferulic acid (IS). The spiked samples were vortexed for 2 min, and a 1.5 mL of acetonitrile was added to the tube. The samples were vortexed for 2 min and then were submitted to centrifugation for 10 min (14000 rpm, -5°C). Each sample supernatant was transferred to a new plastic centrifuge tube, and acetonitrile was evaporated in a sample concentrator (40°C). The samples were resuspended in 200 μL of acetonitrile/water (70:30 v/v) using a vortex mixer for 3 min. […] The HPLC was connected to a CTC Sample Manager (Model 2777, Waters Corporation, Milford, USA) that was operated at room temperature. Acetonitrile and methanol were used as wash solvents. The HPLC system was coupled to an Applied Biosystems MDS Sciex API 3200 Triple Quadrupole Mass Spectrometer (Toronto, Canada), equipped with a Harvard 22 Dual Model syringe pump (Harvard Apparatus, South Natick, USA) and an electrospray ionization (ESI) source. […] For the positive ion mode, the mobile phase consisted of acetonitrile/water/formic acid (70:30:0.05 v/v/v) at an elution rate of 200 μL/min in an isocratic system. For the negative ion mode, the mobile phase consisted of a gradient of water (A) and acetonitrile/water 95:5 v/v (B), both containing 1 mM ammonium formate. The flow rate was maintained at 400 μL/min, and the gradient profile was as follows: t0-1.0min: […] A = 70%; and t5.1-9.0min: A = 70%. […] The injection volume was 20 μL, and the column temperature was maintained at 25°C for positive ion mode and at 35°C for negative ion mode. Data acquisition was performed with the MS Workstation by Analyst software, version 1.4.2 (ABSciex). Quantification was performed in Multiple Reaction Monitoring (MRM) mode, maintaining the dwell time at 300 and 400 ms for the positive and negative ion modes, respectively. […]

[2] = Initial screening of bioavailability: 60 mL of guaco syrup orally; format: in vivo, human; details: 60 mL guaco syrup (17.6 mg COU, 1.1 mg OCA, 8.9 mg KAU), up to 600 min
Description: All the volunteers fasted for 8 h prior to the administration of guaco syrup and blood collection. […] The anticoagulant used was tetrasodium edetate. […] The pharmacokinetic analysis was performed using a non-compartmental model, considering an extravascular administration route and using WinNonlin Professional software, version 5.3. The relationships among the areas under the curves (r areas = AUC0-t/AUC0-inf), were used to confirm the suitability of the experimental design.

[3] = Stability in human plasma: short-term, freeze-thaw and long-term; format: in vitro ADME; details: for Mean recovery: n = 8, ± SD
Description: The samples were vortexed for 2 min and then were kept at room temperature for 8 h. Afterward, the samples were spiked with 50 μL of IS solution and were vortexed (2 min) and submitted to the extraction procedures. The short-term stability was evaluated by comparing the mean recovery of the analytes and the IS obtained from stored samples with the mean values obtained with freshly prepared samples, at same concentration levels.
Freeze-thawed, post-preparative and long-term stability assay samples were prepared and evaluated similar to the short-term stability samples. However, the freeze thawing assay was assessed after undergoing three freeze-thaw cycles (one freeze-thaw cycle per day on three consecutive days) and post-preparative assay, maintaining the extracted samples for 24 hours in the Sample Manager (20°C, transparent vials). The long-term stability of human plasma stored at -40°C was assessed at the end of the study (60 days).

[4] = both sexes, human, plasma, po, 1500 mg, human plasma, 60 mL guaco syrup spiked with 1500 mg coumarin, n = 5, mean ± S.D.
[5] = both sexes, human, plasma, po, 1500 mg, human plasma, 60 mL guaco syrup spiked with 1500 mg coumarin, n = 5, mean ± S.D., read-out: Cmax
[6] = both sexes, human plasma, oral, 60 mL guaco syrup spiked with 1500 mg coumarin, n = 5, mean ± S.D.
[7] = human plasma, oral, 60 mL guaco syrup spiked with 1500 mg coumarin, n = 5, mean ± S.D.
[8] = Long-term: plasma at -40°C, 60 days, high level (1250.0, 750.0, 750.0, 500.0 ng/mL)
[9] = Long-term: plasma at -40°C, 60 days, low level (50.0, 12.5, 25.0, 10.0 ng/mL)
[10] = Short-term: plasma at room temperature for 8 h, high level (1250.0, 750.0, 750.0, 500.0 ng/mL)
[11] = Short-term: plasma at room temperature for 8 h, low level (50.0, 12.5, 25.0, 10.0 ng/mL)
[12] = three freeze–thaw cycles, plasma, high level (1250.0, 750.0, 750.0, 500.0 ng/mL)
[13] = three freeze–thaw cycles, plasma, low level (50.0, 12.5, 25.0, 10.0 ng/mL)

Row | half-life [1, 4] | Cmax [1, 5] | AUC(0-inf) [1, 6] | AUC(0-t) [1, 6] | Tmax [1, 6] | T1/2 [1, 7] | r areas (AUC0-t/AUC0-inf) [1, 7] | plasma levels after guaco syrup without spiking [2] | Mean recovery [3, 8] | Mean recovery [3, 9] | RE ([3]; Long-term, high level) | RE ([3]; Long-term, low level) | Mean recovery [3, 10] | Mean recovery [3, 11] | RE ([3]; Short-term, high level) | RE ([3]; Short-term, low level) | RE ([3]; freeze–thaw cycles, high level) | RE ([3]; freeze–thaw cycles, low level) | Mean recovery [3, 12] | Mean recovery [3, 13] | SMILES | further results
1 | ~1 h | 85 ± 40.1 ng/mL | 134 ± 58 ng·h/mL | 126 ± 54 ng·h/mL | 1.4 ± 0.68 h | 1.16 ± 0.82 ^a h | 0.95 ± 0.05 | did not provide sufficient levels | 674.4 ± 69.7 ng/mL | 11.7 ± 1.1 ng/mL | -10.08% | -6.19% | 738.1 ± 8.4 ng/mL | 11.7 ± 0.6 ng/mL | -1.59% | -6.24% | -4.69% | -7.29% | 714.8 ± 24.9 ng/mL | 11.6 ± 0.6 ng/mL | O=c1ccc2ccc(O)cc2o1 [7-HCOU, 7-hydroxycoumarin] | Kel (elimination rate constant) [1, 7]: 0.91 ± 0.59 h⁻¹
2 | ~4 h | 735 ng/mL | 1460 ± 547 ng·h/mL | 1340 ± 515 ng·h/mL | 0.93 ± 0.57 h | – | 0.92 ± 0.03 | did not provide sufficient levels | 1265.7 ± 99.2 ng/mL | 45.1 ± 3.6 ng/mL | 1.26% | -9.71% | 1205.5 ± 31.5 ng/mL | 52.4 ± 1.7 ng/mL | -3.56% | 4.81% | 4.61% | 7.62% | 1307.7 ± 40.7 ng/mL | 53.8 ± 2.7 ng/mL | O=c1ccc2ccccc2o1 [COU, 1,2 benzopyrone] | clearance ([1]; both sexes, human, plasma, oral, 1500 mg, Cl/f multiplied by the bioavailability 0.034 of ref 32, read-out: estimated clearance (Cl = 1148.0 x 0.034) (converted)): 651 mL/min; Vd ([1]; both sexes, human, plasma, oral, 1500 mg, Vd/f multiplied by the bioavailability 0.034 of ref 32, read-out: estimated volume of distribution (Vd = 6733.0 x 0.034)): 229 L; Vd/F ([1]; both sexes, human plasma, oral, 60 mL guaco syrup spiked with 1500 mg coumarin, n = 5, mean ± S.D., read-out: Vd/f (apparent volume of distribution)): 6730 ± 3280 L; Cl/f (apparent clearance) [1, 7]: 1148.0 L/h and 1148.0 ± 411.0 L/h; Cmax [1, 7]: 735.46 ± 252.29 ng/mL
3 | ~3 h | 231 ± 187 ng/mL | 518 ± 299 ng·h/mL | 465 ± 299 ng·h/mL | 1.45 ± 0.84 h | 3.50 ± 0.83 ^b h | 0.87 ± 0.08 | did not provide sufficient levels | 606.3 ± 26.8 ng/mL | 22.5 ± 0.4 ng/mL | – | -10.20% | 750.6 ± 29.0 ng/mL | 25.2 ± 0.4 ng/mL | 0.07% | 0.79% | -2.79% | -8.32% | 729.0 ± 41.7 ng/mL | 22.9 ± 1.1 ng/mL | O=C(O)/C=C/c1ccccc1O [OCA, o-coumaric acid] | –
